Test results published in US20230115476A1, “DIETARY BUTYRATE AND ITS USES” (SOCIETE DES PRODUITS NESTLE S.A., priority 2019, published 2023).

Tests used:
[1] = test system: colon epithelial cells; settings: Gillis et al. 2018; cited from earlier work
[2] = test system: rabbit gastric lipase (RGL) followed by porcine pancreatic lipase (PPL); assay: Sequential in vitro digestion, simulated gastric fluid (SGF) then SIF, pH-stat; assay type: in vitro ADME
Procedure: (§1) 10 wt% oil in water emulsions stabilised by 0.3 wt% polyoxyethylene sorbitan mono-oleate (Tween® 80) were prepared by mixing the Tween 80 into the oil phase at 40° C., then mixing with the water phase using a magnetic stirrer. An emulsion was then created using a Hielscher UP 400S ultrasonic probe homogeniser equipped with a 5 mm diameter rod-like probe by applying 100% amplitude at 100% cycle for 2 minutes whilst the sample was cooled using ice water.
The lipid emulsion (2 mL) containing 200 mg of fat was subjected to gastrointestinal in vitro lipolysis. […] For gastric digestion, the sample was incubated for 90 minutes with 8.5 mL of simulated gastric fluid (SGF), which consisted of 150 mM NaCl, 450 U/mL pepsin, 18 U/mL rabbit gastric lipase at 37° C. and a pH of 5.5.
The intestinal digestion step was performed in the pH stat where the pH was kept constant at 6.8 by addition of NaOH (0.05 M). […] The intestinal digestion step starts when the temperature reaches 37 ± 0.5° C. The pH was adjusted to pH 6.8 and after incubation of two minutes at this pH and temperature, a pancreatin solution (5 mM tris, 150 mM NaCl at pH 6.8) was added. The final composition of the intestinal fluid was 10 mM CaCl2, 12 mM mixed bile salts, 0.75 mM phospholipid, 150 mM NaCl and 4 mM tris(hydroxymethyl)aminomethane buffer. The intestinal digestion step was carried out for 3 hours in a titration manager from Radiometer. During the intestinal phase of digestion, the kinetics of digestion were followed using a pH-stat (TIM856, Radiometer) technique and expressed as titratable acid (rather than fatty acid) that was calculated by the equation: […]
(§2) Since the digestion of dietary lipids involves lipases of both gastric and intestinal origin, lipid digestibility was assessed using two digestion models i) simulated intestinal fluid (SIF) with porcine pancreatic lipase (PPL) and ii) sequential digestion in simulated gastric fluid (SGF) with rabbit gastric lipase (RGL) followed by simulated intestinal fluid (SIF) with porcine pancreatic lipase (PPL).

[3] = test system: porcine pancreatic lipase (PPL); assay: In vitro lipolysis in simulated intestinal fluid (SIF), pH-stat; assay type: in vitro ADME
Procedure: as §1
The lipid emulsion (2 mL) containing 200 mg of fat was subjected to gastrointestinal in vitro lipolysis. […]
The intestinal digestion step was performed in the pH stat where the pH was kept constant at 6.8 by addition of NaOH (0.05 M). […] During the intestinal phase of digestion, the kinetics of digestion were followed using a pH-stat (TIM856, Radiometer) technique and expressed as titratable acid (rather than fatty acid) that was calculated by the equation: […]
as §2

[4] = test system: Enterobacteriaceae, Salmonella; settings: following oral streptomycin administration; Byndloss 2017, Rivera-Chavez 2016; cited from earlier work

- Initial lipolysis rate in SIF ([2]; SGF-SIF sequential digestion, 90 min SGF pH 5.5 first): 44.1 ± 8.8 µmol/min
- Lipolysis by gastric lipase ([2]; indicated by decreased total fatty acid release in SIF after RGL in SGF): ~ 60%
- Hydrolysis in the stomach (gastric lipolysis) ([2]; overall conclusion in words): extensive hydrolysis in the stomach
- Initial rate of lipolysis ([3]; SIF alone, emulsion with 200 mg fat, pH 6.8, 37° C.): 223 ± 59 µmol/min
- Extent of digestion ([3]; back titration to pH 11.5, overall extent after SIF and SGF-SIF (FIG. 2)): 101.5 ± 0.9%
SMILES: CCCC(=O)OCC(COC(=O)CCC)OC(=O)CCC [tributyrin]
- Effect on antibiotic-induced lactate production [1]: reduce antibiotic-induced lactate production
- Effect on pathogen expansion [4]: restrict pathogen expansion
